Assay results: US9663473B2 (Actelion Pharmaceuticals Ltd, priority 2013, dated 2017)
Counter-ions that a name gives are not always drawn.

Each compound was assayed against T1, recombinant human ALX receptor (Homo sapiens, UniProt P25090) (assay: Intracellular calcium measurements (FLIPR), ALX receptor agonistic activity). Conditions: HEK293-hALXR-Gα16 cells, Fluo-4 calcium signal, normalized to WKYMVm 10 nM.
T1 construct: expressed in transfected cells; host or cells: HEK293 (HEK293-hALXR-Gα16)
T1 sequence (P25090 1-351): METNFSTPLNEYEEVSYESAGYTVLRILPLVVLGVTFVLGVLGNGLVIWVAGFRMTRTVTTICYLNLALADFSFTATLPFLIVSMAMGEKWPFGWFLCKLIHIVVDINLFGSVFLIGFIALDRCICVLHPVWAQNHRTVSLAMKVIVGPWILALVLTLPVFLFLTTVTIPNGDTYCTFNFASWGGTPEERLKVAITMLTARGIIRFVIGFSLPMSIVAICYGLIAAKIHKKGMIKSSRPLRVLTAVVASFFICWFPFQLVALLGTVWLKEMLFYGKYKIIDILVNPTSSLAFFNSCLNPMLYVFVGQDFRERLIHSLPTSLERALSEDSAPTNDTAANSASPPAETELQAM
Assay type: cell-based
Description: The ALX receptor agonistic activity of the compounds of formula (I) is determined in accordance with the following experimental method.
Intracellular Calcium Measurements:
Cells expressing recombinant human ALX receptor and the G-protein Gα16 (HEK293-hALXR-Gα16) were grown to 80% confluency in Growing Medium (GM). Cells were detached from culture dishes with a cell dissociation buffer (Invitrogen, 13151-014), and collected by centrifugation at 1′000 rpm at rt for 5 min in Assay Buffer (AB) (equal parts of Hank's BSS (Gibco, 14065-049) and DMEM without Phenol Red (Gibco, 11880-028)). After 60 min incubation at 37° C. under 5% CO2 in AB supplemented with 1 μM Fluo-4 (AM) (Invitrogen, F14202) and 20 mM HEPES (Gibco, 15630-056), the cells were washed and resuspended in AB. They were then seeded onto 384-well FLIPR assay plates (Greiner, 781091) at 50′000 cells in 70 μl per well and sedimented by centrifugation at 1′000 rpm for 1 min. Stock solutions of test compounds were made up at a concentration of 10 mM in DMSO, and serially diluted in AB to concentrations required for activation dose response curves. WKYMVm (Phoenix Peptides) was used as a reference agonist. A FLIPR Tetra instrument (Molecular Devices) was operated according to the manufacturer's standard instructions, adding 4 μl of test compound dissolved at 10 mM in DMSO and diluted prior to the experiment in assay buffer to obtain the desired final concentration. Changes in fluorescence were monitored before and after the addition of test compounds at lex=488 nm and lem=540 nm. Emission peak values above base level after compounds addition were exported after base line subtraction. Values were normalized to high-level control (WKYMVm compound, 10 nM final concentration) after subtraction of the base line value (AB addition).

Row | SMILES | EC50
1 | COc1ccc(CC(NC(=O)NCCc2ccccc2OC)c2nc3ccccc3[nH]2)cc1 (centres unmarked) [Example 40, 1-(1-(1H-Benzo[d]imidazol-2-yl)-2-(4-methoxyphenyl)ethyl)-3-(2-methoxyphenethyl)urea] | 62 nM
2 | COc1ccc(C[C@@H](NC(=O)N2CC3CC2CN3)c2nc3ccccc3[nH]2)cc1 (stereo partly drawn) [Example 129, N—((R)-1-(1H-Benzo[d]imidazol-2-yl)-2-(4-methoxyphenyl)ethyl)-2,5-diazabicyclo[2.2.1]heptane-2-carboxamide] | 279 nM
3 | COc1ccc(C[C@@H](NC(=O)NC2(c3ccc(C)cc3)CC2)c2nc3ccccc3[nH]2)cc1 [Example 277, (R)-1-(1-(1H-Benzo[d]imidazol-2-yl)-2-(4-methoxyphenyl)ethyl)-3-(1-(p-tolyl)cyclopropyl)urea] | 82 nM
4 | COc1ccc(C[C@@H](NC(=O)Nc2ccccc2OC)c2nc3ccccc3[nH]2)cc1 [Example 178, (R)-1-(1-(1H-Benzo[d]imidazol-2-yl)-2-(4-methoxyphenyl)ethyl)-3-(2-methoxyphenyl)urea] | 699 nM
5 | COc1ccc(C[C@@H](NC(=O)Nc2ccon2)c2nc3ccccc3[nH]2)cc1 [Example 379, (R)-1-(1-(1H-Benzo[d]imidazol-2-yl)-2-(4-methoxyphenyl)ethyl)-3-(isoxazol-3-yl)urea hydrochloride] | 1090 nM
6 | COc1ccc(C[C@@H](NC(=O)NC2CCN(Cc3ccccc3)CC2)c2nc3ccccc3[nH]2)cc1 [Example 88, (R)-1-(1-(1H-Benzo[d]imidazol-2-yl)-2-(4-methoxyphenyl)ethyl)-3-(1-benzylpiperidin-4-yl)urea] | 101 nM
7 | COc1ccc(C[C@@H](NC(=O)NCCO)c2nc3ccccc3[nH]2)cc1 [Example 94, (R)-1-(1-(1H-Benzo[d]imidazol-2-yl)-2-(4-methoxyphenyl)ethyl)-3-(2-hydroxyethyl)urea] | 570 nM
8 | COc1ccc(C[C@@H](NC(=O)N[C@H]2CCNC[C@@H]2F)c2nc3ccccc3[nH]2)cc1 (relative stereo) [Example 165, 1-((R)-1-(1H-Benzo[d]imidazol-2-yl)-2-(4-methoxyphenyl)ethyl)-3-((3S*,4S*)-3-fluoropiperidin-4-yl)urea] | 27 nM
9 | COc1ccc(C[C@@H](NC(=O)NCCN2CCNCC2)c2nc3ccccc3[nH]2)cc1 [Example 150, (R)-1-(1-(1H-Benzo[d]imidazol-2-yl)-2-(4-methoxyphenyl)ethyl)-3-(2-(piperazin-1-yl)ethyl)urea] | 209 nM
10 | COc1ccc(C[C@@H](NC(=O)NC[C@H]2CCCC[C@@H]2O)c2nc3ccccc3[nH]2)cc1 (relative stereo) [Example 103, 1-((R)-1-(1H-Benzo[d]imidazol-2-yl)-2-(4-methoxyphenyl)ethyl)-3-(((1R*,2S*)-2-hydroxycyclohexyl)methyl)urea] | 309 nM
11 | COc1ccc(CC(NC(=O)N[C@H]2CC[C@H](O)CC2)c2nc3ccncc3[nH]2)cc1 (relative stereo) [Example 428, 1-(1-(3H-imidazo[4,5-c]pyridin-2-yl)-2-(4-methoxyphenyl)ethyl)-3-(trans-4-hydroxycyclohexyl)urea] | 299 nM
12 | COc1ccc(CC(NC(=O)NCc2cccc(Cl)c2)c2nc3ccccc3[nH]2)cc1 (centres unmarked) [Example 46, 1-(1-(1H-Benzo[d]imidazol-2-yl)-2-(4-methoxyphenyl)ethyl)-3-(3-chlorobenzyl)urea] | 601 nM
13 | N#Cc1ccc(CC(NC(=O)N[C@H]2CC[C@H](O)CC2)c2nc3ccccc3[nH]2)cc1 (relative stereo) [Example 78, 1-(1-(1H-Benzo[d]imidazol-2-yl)-2-(4-cyanophenyl)ethyl)-3-(trans-4-hydroxycyclohexyl)urea] | 693 nM
14 | COc1ccc(C[C@@H](NC(=O)NCc2cccc(C)c2)c2nc3ccccc3[nH]2)cc1 [Example 276, (R)-1-(1-(1H-Benzo[d]imidazol-2-yl)-2-(4-methoxyphenyl)ethyl)-3-(3-methylbenzyl)urea] | 229 nM
15 | COc1ccc(C[C@@H](NC(=O)N[C@H]2CC[C@H](O)CC2)c2nc3cc(Br)ccc3[nH]2)cc1 [Example 179, 1-((R)-1-(5-Bromo-1H-benzo[d]imidazol-2-yl)-2-(4-methoxyphenyl)ethyl)-3-(trans-4-hydroxycyclohexyl)urea] | 1.1 nM
16 | COc1ccc(CC(NC(=O)N[C@H]2CC[C@@](C)(O)CC2)c2nc3ccccc3[nH]2)cc1F (relative stereo) [Example 227, 1-(1-(1H-Benzo[d]imidazol-2-yl)-2-(3-fluoro-4-methoxyphenyl)ethyl)-3-(cis-4-hydroxy-4-methylcyclohexyl)urea] | 97 nM
17 | COc1ccc(C[C@@H](NC(=O)NCCC#N)c2nc3ccccc3[nH]2)cc1 [Example 69, (R)-1-(1-(1H-Benzo[d]imidazol-2-yl)-2-(4-methoxyphenyl)ethyl)-3-(2-cyanoethyl)urea] | 637 nM
18 | COc1ccc(C[C@@H](NC(=O)NCCc2ccc(F)cc2)c2nc3ccccc3[nH]2)cc1 [Example 55, (R)-1-(1-(1H-Benzo[d]imidazol-2-yl)-2-(4-methoxyphenyl)ethyl)-3-(4-fluorophenethyl)urea hydrochloride] | 137 nM
19 | COc1ccc(C[C@@H](NC(=O)N[C@@H](C)c2ccccc2OC)c2nc3ccccc3[nH]2)cc1 [Example 326, 1-((R)-1-(1H-Benzo[d]imidazol-2-yl)-2-(4-methoxyphenyl)ethyl)-3-((S)-1-(2-methoxyphenyl)ethyl)urea] | 46 nM
20 | COc1ccc(CC(NC(=O)N[C@H](C)c2cccc(Cl)c2)c2nc3ccccc3[nH]2)cc1 (stereo partly drawn) [Example 41, 1-(1-(1H-Benzo[d]imidazol-2-yl)-2-(4-methoxyphenyl)ethyl)-3-((R)-1-(3-chlorophenyl)ethyl)urea] | 776 nM
21 | COc1ccc(C[C@@H](NC(=O)NCc2ccccc2C)c2nc3ccccc3[nH]2)cc1 [Example 202, (R)-1-(1-(1H-Benzo[d]imidazol-2-yl)-2-(4-methoxyphenyl)ethyl)-3-(2-methylbenzyl)urea] | 602 nM
22 | COc1ccc(C[C@@H](NC(=O)N[C@H](C)c2cccc(Cl)c2)c2nc3ccccc3[nH]2)cc1 [Example 324, 1-((R)-1-(1H-Benzo[d]imidazol-2-yl)-2-(4-methoxyphenyl)ethyl)-3-((R)-1-(3-chlorophenyl)ethyl)urea] | 712 nM
23 | COc1ccc(C[C@@H](NC(=O)NCc2ccccc2CN2CCOCC2)c2nc3ccccc3[nH]2)cc1 [Example 62, (R)-1-(1-(1H-Benzo[d]imidazol-2-yl)-2-(4-methoxyphenyl)ethyl)-3-(2-(morpholinomethyl)benzyl)urea dihydrochloride] | 48 nM
24 | COc1ccc(C[C@@H](NC(=O)NCC2CCCc3ccccc32)c2nc3ccccc3[nH]2)cc1 (stereo partly drawn) [Example 305, 1-((R)-1-(1H-Benzo[d]imidazol-2-yl)-2-(4-methoxyphenyl)ethyl)-3-((1,2,3,4-tetrahydronaphthalen-1-yl)methyl)urea] | 80 nM
25 | COc1ccc(C[C@@H](NC(=O)NCC2(c3ccccc3)CCCCC2)c2nc3ccccc3[nH]2)cc1 [Example 278, (R)-1-(1-(1H-Benzo[d]imidazol-2-yl)-2-(4-methoxyphenyl)ethyl)-3-((1-phenylcyclohexyl)methyl)urea] | 51 nM
26 | COc1ccc(CC(NC(=O)N[C@H]2CC[C@H](O)CC2)c2nc3cc(F)ccc3[nH]2)c(F)c1F (single isomer, unassigned; ent-1) [Example 375, 1-(2-(2,3-Difluoro-4-methoxyphenyl)-1-(5-fluoro-1H-benzo[d]imidazol-2-yl)ethyl)-3-(trans-4-hydroxycyclohexyl)urea (ent-1)] | 0.4 nM
27 | COc1ccc(C[C@@H](NC(=O)N[C@H](C)c2ccc(Br)cc2)c2nc3ccccc3[nH]2)cc1 [Example 322, 1-((R)-1-(1H-Benzo[d]imidazol-2-yl)-2-(4-methoxyphenyl)ethyl)-3-((R)-1-(4-bromophenyl)ethyl)urea] | 585 nM
28 | COc1ccc(C[C@@H](NC(=O)N2CCC3C2CCN3C(=O)OC(C)(C)C)c2nc3ccccc3[nH]2)cc1 (stereo partly drawn) [Example 121, tert-Butyl 4-(((R)-1-(1H-benzo[d]imidazol-2-yl)-2-(4-methoxyphenyl)ethyl)carbamoyl)hexahydropyrrolo[3,2-b]pyrrole-1 (2H)-carboxylate] | 704 nM
29 | COc1ccc(CC(NC(=O)NC2CCOCC2)c2nc3ccccc3[nH]2)cc1 (centres unmarked) [Example 10, 1-(1-(1H-Benzo[d]imidazol-2-yl)-2-(4-methoxyphenyl)ethyl)-3-(tetrahydro-2H-pyran-4-yl)urea] | 113 nM
